Molecular target: T1, HIV-1 protease wild type protein (Human immunodeficiency virus type 1 group M subtype B, UniProt P04585)
T1 construct: HIV-1 protease wild type protein; purchased AscoProt Biotech, Prague, Czech Republic
Experiment: Biochemical protease assay
Method: For the determination of their in vitro activity on HIV proteases the test substances are dissolved in DMSO and serially diluted. In each case 0.5 μl of substance dilution, 20 μl of 0.2-1 nM HIV-1 protease wild type or mutant protein (e.g., multiresistant isolate “35513”: L10I, I15V, L19I, K20R, E35D, M36I, R41K, I54V, L63P, H69K, A71V, T74P, I84V, L89M, L90M, 193L, AscoProt Biotech, Prague, Czech Republic) in buffer 1 (50 mM sodium acetate pH 4.9, 0.02% BSA, 0.1 mM EDTA, 0.5 mM DTT) and 20 μl of 8 μM substrate (M1865 from Bachem, Bubendorf, Switzerland; Matayoshi et al., Science 1990, 247, 954-8) in buffer 1 are added successively to a 384 well microtiter plate (Greiner, Frickenhausen, Germany), incubated for 60-180 minutes at 32° C. and the fluorescence is measured (e.g., Tecan Safire, 340 nm extinction, 520 nm emission). IC50 values are determined by graphical plotting the substance concentration against the percentage inhibition.

Row | SMILES | IC50 [nM]
1 | Cc1cc(-c2cccc(S(C)(=O)=O)c2)c(Cl)cc1C1=C(O)C2(CCCCCC2)OC1=O [Example 198] | ≤ 100
2 | Cc1cc(-c2ccc(NC(=O)C(C)(C)C)cc2)c(Cl)cc1C1=C(O)C2(CCCCC2)OC1=O [Example 44] | ≤ 100
3 | Cc1cc(-c2cccc(NS(C)(=O)=O)c2)c(Cl)cc1C1=C(O)C2(CCCCC2)OC1=O [Example 176, N-[2′-Chloro-4′-(4-hydroxy-2-oxo-1-oxaspiro[4.5]dec-3-en-3-yl)-5′-methylbiphenyl-3-yl]methanesulfonamide] | ≤ 100
4 | Cc1ccc(CNC(=O)CN2CCCC3(C2)OC(=O)C(c2cc(Cl)c(-c4cccc(S(C)(=O)=O)c4)cc2C)=C3O)cc1 (stereo not drawn) [Example 133] | ≤ 100
5 | Cc1cc(-c2cccc(S(C)(=O)=O)c2)c(Cl)cc1C1=C(O)C2(CCC3CCCC3C2)OC1=O (stereo not drawn) [Example 84] | ≤ 100
6 | C/C(=C\C(=O)N1CCCC2(C1)OC(=O)C(c1cc(Cl)c(-c3cccc(S(C)(=O)=O)c3)cc1C)=C2O)CO (stereo not drawn) [Example 122] | ≤ 100
7 | Cc1cc(-c2cccc(S(C)(=O)=O)c2)c(Cl)cc1C1=C(O)C2(CCCN(CC(=O)NCc3ccco3)C2)OC1=O (stereo not drawn) [Example 169] | ≤ 100
8 | CC(=O)N1CCC2(CC1)OC(=O)C(c1cc(Cl)c(-c3cccc(S(C)(=O)=O)c3)cc1C)=C2O [Example 158] | ≤ 100
9 | CC(=O)Nc1cc(-c2cc(C)c(C3=C(O)C4(CCCCC4)OC3=O)cc2Cl)ccc1C [Example 184, N-[2′-Chloro-4′-(4-hydroxy-2-oxo-1-oxaspiro[4.5]dec-3-en-3-yl)-4,5′-dimethylbiphenyl-3-yl]acetamide] | ≤ 100
10 | Cc1cc(-c2cccc(S(C)(=O)=O)c2)c(Cl)cc1C1=C(O)C2(CCCCC2)OC1=O [Example 36] | ≤ 100
11 | COc1ccc(CCCC(=O)N2CCC3(CC2)OC(=O)C(c2cc(Cl)c(-c4cccc(S(C)(=O)=O)c4)cc2C)=C3O)cc1 [Example 141] | ≤ 100
12 | Cc1cc(-c2cccc(S(C)(=O)=O)c2)c(Cl)cc1C1=C(O)C2(CCCN(CC(=O)NCc3ccccc3)C2)OC1=O (stereo not drawn) [Example 128] | ≤ 100
13 | CCOC(=O)N1CCC2(CC1)OC(=O)C(c1cc(Cl)c(-c3cccc(S(C)(=O)=O)c3)cc1C)=C2O [Example 153] | ≤ 100
14 | Cc1cc(-c2cccc(S(C)(=O)=O)c2)c(Cl)cc1C1=C(O)C2(CCCN(CC(=O)NCc3ccc(OC(F)(F)F)cc3)C2)OC1=O (stereo not drawn) [Example 166] | ≤ 100
15 | COC1CCC2(CC1)OC(=O)C(c1cc(Cl)c(-c3ccc(F)cc3)cc1C)=C2O (stereo not drawn) [Example 54] | ≤ 100
16 | Cc1cc(-c2cccc(NS(C)(=O)=O)c2)c(Cl)cc1C1=C(O)C2(CCCCCC2)OC1=O [Example 199] | ≤ 100
17 | COc1cccc(-c2cc(Cl)c(C3=C(O)C4(CCCCC4)OC3=O)cc2C)c1 [Example 69] | ≤ 100
18 | Cc1cc(-c2cccc(S(C)(=O)=O)c2)c(Cl)cc1C1=C(O)C2(CCCN(CC(=O)NCc3ccsc3)C2)OC1=O (stereo not drawn) [Example 167] | ≤ 100
19 | Cc1cc(-c2ccc(Cl)cc2)c(C)cc1C1=C(O)C2(CCC3CCCC3C2)OC1=O (stereo not drawn) [Example 12] | ≤ 100
20 | C=CS(=O)(=O)Nc1cccc(-c2cc(C)c(C3=C(O)C4(CCCCC4)OC3=O)cc2Cl)c1 [Example 193, N-[2′-Chloro-4′-(4-hydroxy-2-oxo-1-oxaspiro[4.5]dec-3-en-3-yl)-5′-methylbiphenyl-3-yl]ethenesulfonamide] | ≤ 100

Row | SMILES | IC50 [nM]
21 | Cc1cc(-c2ccccc2)ccc1C1=C(O)C2(CCCCC2)OC1=O [Example 59] | ≤ 100
22 | Cc1cc(C2=C(O)C3(CCCCC3)OC2=O)c(Cl)cc1-c1ccc(Cl)cc1 [Example 70] | ≤ 100
23 | CCCS(=O)(=O)Nc1cccc(-c2cc(C)c(C3=C(O)C4(CCCCC4)OC3=O)cc2Cl)c1 [Example 177] | ≤ 100
24 | Cc1cc(-c2cccc(NS(C)(=O)=O)c2)c(Cl)cc1C1=C(O)C2(CCC3CCCC3C2)OC1=O (stereo not drawn) [Example 189] | ≤ 100
25 | Cc1ccc(-c2cc(C)c(C3=C(O)C4(CCCCC4)OC3=O)cc2Cl)cc1 [Example 22] | ≤ 100
26 | Cc1cc(-c2cccc(S(C)(=O)=O)c2)c(Cl)cc1C1=C(O)C2(CCCN(C(C)C3=NOCCO3)C2)OC1=O (stereo not drawn) [Example 102] | ≤ 100
27 | Cc1cc(-c2cccc(S(C)(=O)=O)c2)c(Cl)cc1C1=C(O)C2(CCN(C(=O)N3CCCC3)CC2)OC1=O [Example 155] | ≤ 100
28 | COc1cccc(-c2ccc(C3=C(O)C4(CCCCC4)OC3=O)c(C)c2)c1 [Example 60] | ≤ 100
29 | CCOc1ccccc1-c1cc(C)c(C2=C(O)C3(CCC(OC)CC3)OC2=O)cc1Cl (stereo not drawn) [Example 55] | ≤ 100
30 | Cc1cc(-c2ccc(OC(F)(F)F)cc2)c(Cl)cc1C1=C(O)C2(CCCCC2)OC1=O [Example 35] | ≤ 100
31 | Cc1cc(-c2cccc(S(C)(=O)=O)c2)c(Cl)cc1C1=C(O)C2(CCCN(C(=O)N3CCOCC3)C2)OC1=O (stereo not drawn) [Example 106] | ≤ 100
32 | COC1CCC2(CC1)OC(=O)C(c1cc(C)c(-c3cccc(C(F)(F)F)c3)cc1C)=C2O (stereo not drawn) [Example 57] | ≤ 100
33 | COC1CCC2(CC1)OC(=O)C(c1cc(C)c(-c3ccc(Cl)cc3)cc1C)=C2O (stereo not drawn) [Example 58] | ≤ 100
34 | Cc1cc(-c2cccc(S(C)(=O)=O)c2)c(Cl)cc1C1=C(O)C2(CCN(C(=O)CCCS(N)(=O)=O)CC2)OC1=O [Example 140] | ≤ 100
35 | Cc1cc(-c2cccc(S(C)(=O)=O)c2)c(Cl)cc1C1=C(O)C2(CCN(C(=O)CCCC(C)C)CC2)OC1=O [Example 139] | ≤ 100
36 | CC(=O)N1CCCC2(C1)OC(=O)C(c1cc(Cl)c(-c3cccc(S(C)(=O)=O)c3)cc1C)=C2O (stereo not drawn) [Example 104] | ≤ 100
37 | Cc1cc(-c2cccc(S(C)(=O)=O)c2)c(Cl)cc1C1=C(O)C2(CCCN(C(=O)CC3CCCC3)C2)OC1=O (stereo not drawn) [Example 136] | ≤ 100
38 | Cc1cc(-c2cccc(S(C)(=O)=O)c2)c(Cl)cc1C1=C(O)C2(CCCN(CC(=O)C(C)(CF)CF)C2)OC1=O (stereo not drawn) [Example 129] | ≤ 100
39 | COC(=O)CCCC(=O)N1CCC2(CC1)OC(=O)C(c1cc(Cl)c(-c3cccc(S(C)(=O)=O)c3)cc1C)=C2O [Example 138, methyl 5-{3-[2-chloro-5-methyl-3′-(methylsulfonyl)biphenyl-4-yl]-4-hydroxy-2-oxo-1-oxa-8-azaspiro[4.5]dec-3-en-8-yl}-5-oxopentanoate] | ≤ 100
40 | Cc1cc(-c2cccc(S(C)(=O)=O)c2)c(Cl)cc1C1=C(O)C2(CCCN(C(=O)CCCc3ccccc3)C2)OC1=O (stereo not drawn) [Example 135] | ≤ 100

Row | SMILES | IC50 [nM]
41 | CCOC1CCCCC12OC(=O)C(c1cc(Cl)c(-c3ccccc3)cc1C)=C2O (single isomer, unassigned) [Example 77] | ≤ 100
42 | Cc1cc(-c2cccc(S(C)(=O)=O)c2)c(Cl)cc1C1=C(O)C2(CCCN(C(=O)/C=C/c3cccnc3)C2)OC1=O (stereo not drawn) [Example 111] | ≤ 100
43 | Cc1cc(-c2ccc(NC(=O)OC(C)(C)C)cc2)c(Cl)cc1C1=C(O)C2(CCCCC2)OC1=O [Example 43] | ≤ 100
44 | COC1CCC2(CC1)OC(=O)C(c1cc(C)c(-c3cccc(C#N)c3)cc1C)=C2O (stereo not drawn) [Example 56] | ≤ 100
45 | Cc1cc(-c2ccccc2)c(Cl)cc1C1=C(O)C2(CCCC2)OC1=O [Example 201] | ≤ 100
46 | COc1ccc(-c2ccc(C3=C(O)C4(CCCCC4)OC3=O)c(C)c2)cc1 [Example 62] | ≤ 100
47 | Cc1cc(-c2ccc(C(=O)NC3CC3)cc2)c(Cl)cc1C1=C(O)C2(CCCCC2)OC1=O [Example 49] | ≤ 100
48 | Cc1cc(-c2cccc(S(C)(=O)=O)c2)c(Cl)cc1C1=C(O)C2(CCCN(CC(=O)NCc3cccs3)C2)OC1=O (stereo not drawn) [Example 170] | ≤ 100
49 | Cc1cc(-c2cccc(S(C)(=O)=O)c2)c(Cl)cc1C1=C(O)C2(CCCN(C(=O)CCOc3ccccc3)C2)OC1=O (stereo not drawn) [Example 100] | ≤ 100
50 | Cc1cc(-c2cccc(S(C)(=O)=O)c2)c(Cl)cc1C1=C(O)C2(CCN(C(=O)Cc3ccc(OC(F)(F)F)cc3)CC2)OC1=O [Example 144] | ≤ 100
51 | Cc1cc(-c2cccc(NS(C)(=O)=O)c2)c(Cl)cc1C1=C(O)C2(CCN(C(=O)OCc3ccccc3)CC2)OC1=O [Example 91] | ≤ 100
52 | Cc1cc(-c2ccc(C(=O)NCC(=O)O)cc2)c(Cl)cc1C1=C(O)C2(CCCCC2)OC1=O [Example 52] | ≤ 100
53 | Cc1cc(-c2cccc(S(C)(=O)=O)c2)c(Cl)cc1C1=C(O)C2(CCN(C(=O)CCc3cccnc3)CC2)OC1=O [Example 147] | ≤ 100
54 | Cc1cc(-c2ccc(N)cc2)c(Cl)cc1C1=C(O)C2(CCCCC2)OC1=O [Example 171, 3-(4′-Amino-2-chloro-5-methylbiphenyl-4-yl)-4-hydroxy-1-oxaspiro[4.5]dec-3-en-2-one] | ≤ 100
55 | Cc1cc(-c2cccc(S(C)(=O)=O)c2)c(Cl)cc1C1=C(O)C2(CCCN(S(=O)(=O)Cc3ccccc3)C2)OC1=O (stereo not drawn) [Example 110] | ≤ 100
56 | Cc1cc(-c2cccc([N+](=O)[O-])c2)c(Cl)cc1C1=C(O)C2(CCC3CCCC3C2)OC1=O (stereo not drawn) [Example 88] | ≤ 100
57 | Cc1cc(-c2cccc(NC(=O)CCCN(C)C)c2)c(Cl)cc1C1=C(O)C2(CCCCC2)OC1=O [Example 181] | ≤ 100
58 | Cc1cc(-c2cccc(S(C)(=O)=O)c2)c(Cl)cc1C1=C(O)C2(CCCN(C(=O)/C=C\c3cccc(C#N)c3)C2)OC1=O (stereo not drawn) [Example 124] | ≤ 100
59 | Cc1cc(-c2cccc(N)c2)c(Cl)cc1C1=C(O)[C@]2(CC[C@@H]3CCC[C@@H]3C2)OC1=O [Example 175] | ≤ 100
60 | Cc1cc(-c2ccc(C(=O)O)cc2)c(Cl)cc1C1=C(O)C2(CCCCC2)OC1=O [Example 30] | ≤ 100

— US20100022527A1, “BIPHENYL SUBSTITUTED SPIROTETRONIC ACIDS AND THEIR USE FOR THE TREATMENT OF RETROVIRAL DISEASES” (priority 2006, published 2010)
